Data: patent US9073853B2, “Cycloalkane carboxylic acid derivatives as CXCR3 receptor antagonists” (Sanofi, priority 2011, dated 2015)

The compounds below were run against human CXCR3-A receptor (Homo sapiens (Human), UniProt P49682) (assay: 125I-CXCL10 competition radioligand binding assay). Conditions: displacement of 125I-CXCL10 from membranes of CHO cells expressing human recombinant CXCR3-A.
Sequence of human CXCR3-A receptor (P49682 whole entry): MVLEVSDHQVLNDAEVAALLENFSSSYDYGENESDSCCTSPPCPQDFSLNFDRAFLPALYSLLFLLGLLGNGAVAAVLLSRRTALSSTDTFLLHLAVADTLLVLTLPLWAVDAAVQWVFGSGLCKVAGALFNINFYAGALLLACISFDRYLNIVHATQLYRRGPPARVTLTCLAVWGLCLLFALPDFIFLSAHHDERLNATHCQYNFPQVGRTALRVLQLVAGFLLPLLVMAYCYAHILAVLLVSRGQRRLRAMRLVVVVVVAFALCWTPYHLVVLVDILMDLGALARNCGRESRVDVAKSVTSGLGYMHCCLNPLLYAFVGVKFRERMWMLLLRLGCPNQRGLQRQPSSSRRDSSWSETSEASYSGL
Summary of the method: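 Membranes from a recombinant cell line expressing human CXCR3-A (10-20 μg protein) were incubated with 125I-CXCL10 and test compound for 60 min at 25° C, then filtered onto PEI-soaked GF/B filters and gamma-counted. IC50 and Hill slope came from four-parameter nonlinear fitting of competition curves.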
Compound `CCc1cc(CN(C[C@H]2CC[C@H](C(=O)O)CC2)C(C)c2ccc(Cl)c(F)c2)ccc1OCCN1C(=O)CCC1=O` (stereo partly drawn) [Example 89, trans-4-[([1-(4-Chloro-3-fluoro-phenyl)-ethyl]-{4-[2-(2,5-dioxo-pyrrolidin-1-yl)-ethoxy]-3-ethyl-benzyl}-amino)-methyl]-cyclohexanecarboxylic acid] has an IC50 of 52 nM.
In the case of `CCc1cc(CN(C[C@H]2CC[C@H](C(=O)O)CC2)[C@H](C)c2ccc(Cl)c(F)c2)ccc1OCCN1C(=O)CCC1=O` [Example 90, trans-4-[([(R)-1-(4-Chloro-3-fluoro-phenyl)-ethyl]-{4-[2-(2,5-dioxo-pyrrolidin-1-yl)-ethoxy]-3-ethyl-benzyl}-amino)-methyl]-cyclohexanecarboxylic acid], the IC50 is reported as 494 nM.
For `CCc1cc(CN(C[C@H]2CC[C@H](C(=O)O)CC2)[C@@H](C)c2ccc(Cl)c(F)c2)ccc1OCCN1C(=O)CCC1=O` [Example 91, trans-4-[([(S)-1-(4-Chloro-3-fluoro-phenyl)-ethyl]-{4-[2-(2,5-dioxo-pyrrolidin-1-yl)-ethoxy]-3-ethyl-benzyl}-amino)-methyl]-cyclohexanecarboxylic acid], the IC50 was 121 nM.
`CC(c1ccc(Cl)c(F)c1)N(Cc1ccc(OCCN2C(=O)CCC2=O)c(F)c1)C[C@H]1CC[C@H](C(=O)O)CC1` (stereo partly drawn) [Example 92, trans-4-[([1-(4-Chloro-3-fluoro-phenyl)-ethyl]-{4-[2-(2,5-dioxo-pyrrolidin-1-yl)-ethoxy]-3-fluoro-benzyl}-amino)-methyl]-cyclohexanecarboxylic acid] showed an IC50 of 220 nM.
`COc1cc(CN(C[C@H]2CC[C@H](C(=O)O)CC2)C2CCc3c2ccc(F)c3Cl)ccc1OCCN1C(=O)CCC1=O` (stereo partly drawn) [Example 93, trans-4-[((4-Chloro-5-fluoro-indan-1-yl)-{4-[2-(2,5-dioxo-pyrrolidin-1-yl)-ethoxy]-3-methoxy-benzyl}-amino)-methyl]-cyclohexanecarboxylic acid] showed an IC50 of 84 nM.
Work on `COc1cc(CN(C[C@H]2CC[C@H](C(=O)O)CC2)C2CCc3cc(F)c(Cl)cc32)ccc1OCCN1C(=O)CCC1=O` (stereo partly drawn) [Example 94, trans-4-[((6-Chloro-5-fluoro-indan-1-yl)-{4-[2-(2,5-dioxo-pyrrolidin-1-yl)-ethoxy]-3-methoxy-benzyl}-amino)-methyl]-cyclohexanecarboxylic acid] yielded an IC50 of 630 nM.
For `CCc1cc(CN(C[C@H]2CC[C@H](C(=O)O)CC2)C2CCc3cc(F)c(Cl)cc32)ccc1OCCN1C(=O)CCC1=O` (stereo partly drawn) [Example 95, trans-4-[((6-Chloro-5-fluoro-indan-1-yl)-{4-[2-(2,5-dioxo-pyrrolidin-1-yl)-ethoxy]-3-ethyl-benzyl}-amino)-methyl]-cyclohexanecarboxylic acid], the IC50 was 4040 nM.
For `CCc1cc(CN(C[C@H]2CC[C@H](C(=O)O)CC2)C2CCc3c2ccc(F)c3Cl)ccc1OCCN1C(=O)CCC1=O` (stereo partly drawn) [Example 96, trans-4-[((4-Chloro-5-fluoro-indan-1-yl)-{4-[2-(2,5-dioxo-pyrrolidin-1-yl)-ethoxy]-3-ethyl-benzyl}-amino)-methyl]-cyclohexanecarboxylic acid], the IC50 was 443 nM.
`O=C1CCC(=O)N1CCOc1ccc(CN(C[C@H]2CC[C@H](C(=O)O)CC2)C2CCc3cc(F)c(Cl)cc32)cc1F` (stereo partly drawn) [Example 97, trans-4-[((6-Chloro-5-fluoro-indan-1-yl)-{4-[2-(2,5-dioxo-pyrrolidin-1-yl)-ethoxy]-3-fluoro-benzyl}-amino)-methyl]-cyclohexanecarboxylic acid] showed an IC50 of 4640 nM.
`COc1cc(CN(C[C@H]2CC[C@H](C(=O)O)CC2)C2CCc3cc(Cl)c(F)cc32)ccc1OCCN1C(=O)CCC1=O` (stereo partly drawn) [Example 98, trans-4-[((5-Chloro-6-fluoro-indan-1-yl)-{4-[2-(2,5-dioxo-pyrrolidin-1-yl)-ethoxy]-3-methoxy-benzyl}-amino)-methyl]-cyclohexanecarboxylic acid] gave an IC50 of 155 nM.
`COc1cc(CN(C[C@@H]2CC[C@@H](C(=O)O)C2)[C@@H](C)c2ccc(Cl)cc2)ccc1OCCN1C(=O)CCC1=O` [Example 99, (1R,3R)-3-[([(S)-1-(4-Chloro-phenyl)-ethyl]-{4-[2-(2,5-dioxo-pyrrolidin-1-yl)-ethoxy]-3-methoxy-benzyl}-amino)-methyl]-cyclopentanecarboxylic acid] was tested, and the IC50 was 223 nM.
In the case of `COc1cc(CN(C[C@H]2CC[C@H](C(=O)O)C2)[C@@H](C)c2ccc(Cl)cc2)ccc1OCCN1C(=O)CCC1=O` [Example 100, (1S,3S)-3-[([(S)-1-(4-Chloro-phenyl)-ethyl]-{4-[2-(2,5-dioxo-pyrrolidin-1-yl)-ethoxy]-3-methoxy-benzyl}-amino)-methyl]-cyclopentanecarboxylic acid], the IC50 is reported as 108 nM.
For `COc1cc(CN(C[C@H]2CC[C@@H](C(=O)O)C2)[C@@H](C)c2ccc(Cl)cc2)ccc1OCCN1C(=O)CCC1=O` [Example 101, (1R,3S)-3-[([(S)-1-(4-Chloro-phenyl)-ethyl]-{4-[2-(2,5-dioxo-pyrrolidin-1-yl)-ethoxy]-3-methoxy-benzyl}-amino)-methyl]-cyclopentanecarboxylic acid], the IC50 was 1810 nM.
In the case of `COc1cc(CN(C[C@@H]2CC[C@H](C(=O)O)C2)[C@@H](C)c2ccc(Cl)cc2)ccc1OCCN1C(=O)CCC1=O` [Example 102, (1S,3R)-3-[([(S)-1-(4-Chloro-phenyl)-ethyl]-{4-[2-(2,5-dioxo-pyrrolidin-1-yl)-ethoxy]-3-methoxy-benzyl}-amino)-methyl]-cyclopentanecarboxylic acid], the IC50 is reported as 154 nM.
For `COc1cc(CN(C[C@H]2CC[C@@H](C(=O)O)C2)[C@H](C)c2ccc3c(c2)CCO3)ccc1OCCN1C(=O)CCC1=O` [Example 103, (1R,3S)-3-[([(R)-1-(2,3-Dihydro-benzofuran-5-yl)-ethyl]-{4-[2-(2,5-dioxo-pyrrolidin-1-yl)-ethoxy]-3-methoxy-benzyl}-amino)-methyl]-cyclopentanecarboxylic acid], the IC50 was 260 nM.
Compound `COc1cc(CN(C[C@@H]2CC[C@@H](C(=O)O)C2)[C@H](C)c2ccc3c(c2)CCO3)ccc1OCCN1C(=O)CCC1=O` [Example 104, (1R,3R)-3-[([(R)-1-(2,3-Dihydro-benzofuran-5-yl)-ethyl]-{4-[2-(2,5-dioxo-pyrrolidin-1-yl)-ethoxy]-3-methoxy-benzyl}-amino)-methyl]-cyclopentanecarboxylic acid] has an IC50 of 15 nM.
`COc1cc(CN(C[C@@H]2CC[C@@H](C(=O)O)C2)[C@@H](C)c2ccc3c(c2)CCO3)ccc1OCCN1C(=O)CCC1=O` [Example 105, (1R,3R)-3-[([(S)-1-(2,3-Dihydro-benzofuran-5-yl)-ethyl]-{4-[2-(2,5-dioxo-pyrrolidin-1-yl)-ethoxy]-3-methoxy-benzyl}-amino)-methyl]-cyclopentanecarboxylic acid] gave an IC50 of 53 nM.
Work on `COc1cc(CN(C[C@@H]2CC[C@H](C(=O)O)C2)[C@@H](C)c2ccc3c(c2)CCO3)ccc1OCCN1C(=O)CCC1=O` [Example 106, (1S,3R)-3-[([(S)-1-(2,3-Dihydro-benzofuran-5-yl)-ethyl]-{4-[2-(2,5-dioxo-pyrrolidin-1-yl)-ethoxy]-3-methoxy-benzyl}-amino)-methyl]-cyclopentanecarboxylic acid] yielded an IC50 of 144 nM.
Work on `COc1cc(CN(C[C@H]2CC[C@@H](C(=O)O)C2)[C@@H](C)c2ccc3c(c2)CCO3)ccc1OCCN1C(=O)CCC1=O` [Example 107, (1R,3S)-3-[([(S)-1-(2,3-Dihydro-benzofuran-5-yl)-ethyl]-{4-[2-(2,5-dioxo-pyrrolidin-1-yl)-ethoxy]-3-methoxy-benzyl}-amino)-methyl]-cyclopentanecarboxylic acid] yielded an IC50 of 5130 nM.
In the case of `COc1cc(CN(C[C@@H]2CC[C@H](C(=O)O)C2)[C@H](C)c2ccc3c(c2)CCO3)ccc1OCCN1C(=O)CCC1=O` [Example 108, (1S,3R)-3-[([(R)-1-(2,3-Dihydro-benzofuran-5-yl)-ethyl]-{4-[2-(2,5-dioxo-pyrrolidin-1-yl)-ethoxy]-3-methoxy-benzyl}-amino)-methyl]-cyclopentanecarboxylic acid], the IC50 is reported as 190 nM.
`COc1cc(CN(C[C@H]2CC[C@H](C(=O)O)C2)[C@H](C)c2ccc3c(c2)CCO3)ccc1OCCN1C(=O)CCC1=O` [Example 109, (1S,3S)-3-[([(R)-1-(2,3-Dihydro-benzofuran-5-yl)-ethyl]-{4-[2-(2,5-dioxo-pyrrolidin-1-yl)-ethoxy]-3-methoxy-benzyl}-amino)-methyl]-cyclopentanecarboxylic acid] showed an IC50 of 73 nM.
`COc1cc(CN(C[C@H]2CC[C@H](C(=O)O)C2)[C@@H](C)c2ccc3c(c2)CCO3)ccc1OCCN1C(=O)CCC1=O` [Example 110, (1S,3S)-3-[([(S)-1-(2,3-Dihydro-benzofuran-5-yl)-ethyl]-{4-[2-(2,5-dioxo-pyrrolidin-1-yl)-ethoxy]-3-methoxy-benzyl}-amino)-methyl]-cyclopentanecarboxylic acid] showed an IC50 of 525 nM.
Compound `CCOC(=O)[C@@H]1C[C@H]1CN(Cc1ccc(OCCN2C(=O)CCC2=O)c(OC)c1)C(C)c1ccc2c(c1)CCO2` (stereo partly drawn) [Example 111, (1R,2R)-2-[([1-(2,3-Dihydro-benzofuran-5-yl)-ethyl]-{4-[2-(2,5-dioxo-pyrrolidin-1-yl)-ethoxy]-3-methoxy-benzyl}-amino)-methyl]-cyclopropanecarboxylic acid ethyl ester] has an IC50 of 646 nM.
With `COc1cc(CN(C[C@@H]2C[C@H]2C(=O)O)C(C)c2ccc3c(c2)CCO3)ccc1OCCN1C(=O)CCC1=O` (stereo partly drawn) [Example 112, (1R,2R)-2-[([1-(2,3-Dihydro-benzofuran-5-yl)-ethyl]-{4-[2-(2,5-dioxo-pyrrolidin-1-yl)-ethoxy]-3-methoxy-benzyl}-amino)-methyl]-cyclopropanecarboxylic acid] the IC50 was 145 nM.
`CCOC(=O)[C@H]1C[C@H]1CN(Cc1ccc(OCCN2C(=O)CCC2=O)c(OC)c1)C(C)c1ccc2c(c1)CCO2` (stereo partly drawn) [Example 113, (1S,2R)-2-[([1-(2,3-Dihydro-benzofuran-5-yl)-ethyl]-{4-[2-(2,5-dioxo-pyrrolidin-1-yl)-ethoxy]-3-methoxy-benzyl}-amino)-methyl]-cyclopropanecarboxylic acid ethyl ester] was tested, and the IC50 was 82 nM.
